Measurements taken from patent publication US20140158116A1, “INHIBITING TRPA1 FOR THE TREATMENT OF ASTHMA” (Cubist Pharmaceuticals, Inc., priority 2012, published 2014).
pIC50: −log10 of the molar value. “Also recorded” adds a separate entry of the source.

Legend:
[1] = Human plasma protein binding by equilibrium dialysis; assay type: in vitro ADME; details: percentage bound
Description: The amount of compound in buffer (free fraction) and the amount of compound associated with the plasma fraction is determined by equilibrium dialysis; the amount of compound bound is expressed as a percentage. (Banker et al., Journal of Pharmaceutical Sciences (2003) 92(5): 967-74.)

hTRPC5 = biological target: T1, hTRPC5 (Homo sapiens, UniProt Q9UL62); assay: Patch clamp selectivity, hTRPC5; assay type: cell-based
T1 sequence (Q9UL62 1-973): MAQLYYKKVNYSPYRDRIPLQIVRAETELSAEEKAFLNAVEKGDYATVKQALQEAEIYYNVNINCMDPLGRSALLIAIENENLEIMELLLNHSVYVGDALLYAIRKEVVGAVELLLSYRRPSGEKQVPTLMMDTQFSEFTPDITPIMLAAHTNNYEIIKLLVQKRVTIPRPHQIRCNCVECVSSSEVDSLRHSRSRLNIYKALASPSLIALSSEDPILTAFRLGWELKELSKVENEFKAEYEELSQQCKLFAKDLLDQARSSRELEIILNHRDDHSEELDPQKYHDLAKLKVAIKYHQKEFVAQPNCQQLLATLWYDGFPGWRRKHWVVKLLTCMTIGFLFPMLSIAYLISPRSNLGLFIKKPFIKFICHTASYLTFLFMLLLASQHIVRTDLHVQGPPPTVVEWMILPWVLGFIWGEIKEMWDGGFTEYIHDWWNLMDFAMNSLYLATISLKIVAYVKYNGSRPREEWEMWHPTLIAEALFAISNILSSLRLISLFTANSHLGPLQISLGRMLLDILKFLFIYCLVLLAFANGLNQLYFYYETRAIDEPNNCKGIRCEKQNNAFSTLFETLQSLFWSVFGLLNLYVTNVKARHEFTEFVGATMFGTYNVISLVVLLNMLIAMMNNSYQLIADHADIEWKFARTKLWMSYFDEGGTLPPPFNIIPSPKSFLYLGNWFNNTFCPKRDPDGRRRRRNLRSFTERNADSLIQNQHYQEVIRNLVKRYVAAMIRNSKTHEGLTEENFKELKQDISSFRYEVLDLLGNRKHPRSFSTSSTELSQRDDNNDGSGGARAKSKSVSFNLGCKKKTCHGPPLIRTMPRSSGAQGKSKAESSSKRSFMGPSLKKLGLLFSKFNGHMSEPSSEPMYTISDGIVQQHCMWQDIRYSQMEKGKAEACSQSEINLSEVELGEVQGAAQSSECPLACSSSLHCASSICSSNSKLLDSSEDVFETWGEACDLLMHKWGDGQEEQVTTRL
Description: Data for TRPA1 inhibition and the selectivity of TRPA1 inhibition was obtained by this method for the compound of Formula (Ia) and included in Table 1 and Table 2. All currents were recorded in whole-cell configuration using EPC-9 and EPC-10 amplifiers and Patchmaster software (HEKA). […] The standard pipette solution consisted of 140 mM CsAsp, 10 mM EGTA, 10 mM HEPES, 2.27 mM MgCl2, 1.91 mM CaCl2, 4 mM MgATP, and 0.1-0.3 mM Na2GTP, with pH adjusted to 7.2 with CsOH. In addition, a solution containing 145 mM CsCl, 10 mM HEPES, 10 mM EGTA and 1 mM MgCl2 (pH 7.2 adjusted with CsOH) can be used. The standard bath solution contained 150 mM NaCl, 10 mM HEPES, 10 mM glucose, 4.5 mM KCl, 1 mM EGTA, 3 mM MgCl2, with pH adjusted to 7.4 with NaOH. In some instances, 2 mM CaCl2 was added in place of EGTA and the concentration of MgCl2 was reduced to 1 mM.
Data were collected either by continuous recordings at −60 mV or by applying voltage ramps from a holding potential of 0 mV every 4 s. […] Inward and outward currents were analyzed from the ramps at −80 and 80 mV, respectively. […]
Solutions were switched using a gravity-fed continuous focal perfusion system. […] Temperatures were confirmed using a thermistor (Warner Instruments, TA-29), with temperatures at the recorded cell estimated to be within +/−2° C. of those reported. […]

[2] = test system: CFA-induced cold allodynia; assay: Complete Freund's Adjuvant (CFA) cold allodynia rodent pain model; assay type: in vivo; details: vehicle 19.8
Description: The compound of Formula (Ia) is also active in rodent models of pain in vivo induced by cold allodynia following chronic Complete Freund's Adjuvant-induced inflammation, as described in Example 6. […] The compound of Formula (Ia), the comparator compound of Formula (II) and ketoprofen were tested by the CFA-induced pain test method reported in del Camino et al., J. Neurosci., 30(45):15165-15174, incorporated herein by reference in its entirety. Briefly, the hind paw was sensitized to cold temperature (allodynic), by administering 0.1 mL of Complete Freund's Adjuvant (CFA) to the left hind paw. 2-3 days later, the time taken for the animal to lift its CFA-injected paw was recorded compared to its un-injected normal right hind paw. […] To avoid tissue damage the maximum cut-off time was 5 minutes. Animals that were allodynic (average PWL to the first three pain behaviors <150 seconds for the CFA-injected hind paw: ˜≧50% difference between the normal and CFA-injected paw) were included in the study and subsequently randomized across treatment groups. The following day, the animals were dosed under blinded conditions. Following the 1-2 hour pre-treatment time, the post-dose PWL readings were again taken. The efficacy of the drug treatment was assessed by comparing the PWL in the drug treatment animals to those animals that received the vehicle.

[3] = 7-day repeat dose i.p. screening toxicity study in rats; assay type: in vivo, rat; details: female rats, 50 mg/kg/day i.p. for 7 consecutive days
Description: The compound of Formula (Ia) was evaluated in a 7-day repeat dose screening toxicity study in female rats. In order to maximize systemic exposure, rats were administered compound of Formula (Ia) i.p. at 50 mg/kg/day for 7 consecutive days, to obtain the results shown in FIG. 6. Clinical chemistry parameters were evaluated on Days 3 and 8. Histopathology was performed on select organs including the liver, kidney, spleen, and lung.

fraction unbound [1]: > 0.01 | Fold Selectivity Compared to TRPA1 (hTRPC5): >100 fold | pIC50 (hTRPC5; 80 micromolar LaCl3, Inward (−80 mV)): < 5.00
Compound: C[C@H]1CCCN1c1ncc(-c2cccc(NC(=O)Cn3cnc4c3c(=O)n(C)c(=O)n4C)n2)cn1 [Formula (Ia)]
Change in Paw Withdrawal Latency ([2]; 1 mg/kg i.p., cold plate): 38.4 | Change in Paw Withdrawal Latency ([2]; 5 mg/kg i.p.): 45.0 | Change in Paw Withdrawal Latency ([2]; 10 mg/kg i.p.): 117.6 | Change in Paw Withdrawal Latency ([2]; 30 mg/kg i.p.): 134.4 | Change in Paw Withdrawal Latency ([2]; 50 mg/kg i.p.): 177.8 | clinical signs, body weight, clinical chemistry parameters [3]: no adverse clinical signs, changes in body weight, or changes in clinical chemistry parameters were noted | histopathology of liver, kidney, spleen, lung ([3]; 50 mg/kg/day): No histopathological findings in the liver, kidney, spleen, or lung were observed; also recorded: no adverse effects related to the compound of Formula (Ia) were identified
